Data as given in paper PMC11079029, “Intramolecular autoinhibition regulates the selectivity of PRPF40A tandem WW domains for proline-rich motifs” (Nature Communications, 2024).
Read-outs that look alike come from different tables or passages of the source.

Target: T1, PRPF40A Mut N-ExtWW12 (Homo sapiens, UniProt O75400, L125A/P123A/P126A/P127A/P78A/P79A/P81A/V80A)
T1 construct: WW12long 141–248, and N-ext-WW12 56–236; 6xHis-TEV site (N, cleaved yes); made in house; host or cells: Escherichia coli BL21(DE3)
T1 sequence (O75400 56-236 P78A/P79A/V80A/P81A/P123A/L125A/P126A/P127A limits assumed): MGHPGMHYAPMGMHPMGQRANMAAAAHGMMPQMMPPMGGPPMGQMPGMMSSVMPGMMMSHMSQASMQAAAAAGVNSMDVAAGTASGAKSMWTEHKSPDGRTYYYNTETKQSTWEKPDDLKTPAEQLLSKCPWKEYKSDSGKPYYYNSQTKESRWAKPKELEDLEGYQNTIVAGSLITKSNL
Assay: ITC of mutant N-ext-WW12 (PPVP/PALPP motifs changed to alanine) with SF1WWbs
Assay type: binding
Excerpt: While only partial backbone chemical shift assignments of this construct (69% completeness), N-ext-WW12, could be possible due to a highly repetitive sequence, a complete assignment of the methyl groups was achieved. We then performed a titration with the high-affinity peptide, SF1WWbs, by NMR. […] To further support this conclusion, we prepared a mutant version of the N-ext-WW12 construct, changing these two motifs to alanine residues, and observed clear shifting of NMR signals towards the free WW12 spectrum in the short version of the tandem. This corroborates that mainly these two proline-rich motifs govern the intramolecular interacting region (Supplementary Fig. 19).
To further confirm this analysis, we titrated SF1WWbs and the mutant version of the N-ext-WW12 construct (changing the PPVP/PALPP motifs for alanine residues).
PRPF40A isoform 1 sequences (N-ter 1–310, WW12short 141–223, WW12 141–236, WW12long 141–248, and N-ext-WW12 56–236) were amplified from a purchased DNA fragment (IDT) and cloned using NcoI and KpnI restriction sites into a pETM11 vector encoding 6xHis and TEV cleavage site as a N-terminal tag. SF1 (Pro A 410–468, Pro B 468–539, Pro C 539–594, Pro D 594–639, Pro BC 468–594, Pro CD 539–639, Pro BCD 468–639 and Pro ABCD 410–639) and SF3A1 (Middle Pro 364–413 and C-ter Pro 552–683) constructs were prepared in a similar manner using a pET24 vector with a 6xHis, GB1 and TEV cleavage site as N-terminal fusion cassette. 16-mer SF1 constructs (Table 1) and polyproline peptides (P6, P8, P10, P13, P16, P19, P22, P25, and P29) were cloned in the same pET24 vector with GB1 tag by direct ligation of purchased oligonucleotides (Eurofins). All peptide sequences contained N and C-terminal common residues to avoid boundary effects on binding: TEVsite-GAMSGS-peptide-SGSN. Mutants of PRPF40A WW12 and N-ext-WW12 constructs were prepared by site-directed mutagenesis. The truncated version of PRPF40A WW12 (141-217) was a gift from Dr. María Macías (IRB, Spain). All used oligonucleotides were purchased from Eurofins Genomics and are shown in Supplementary Table 6.
Experiments were conducted on a MicroCAl PEAQ-ITC (Malvern Instruments, UK) at 25 °C in 20 mM sodium phosphate pH 6.5 and 100 mM NaCl. PRPF40A was titrated into N-terminal GB1 tagged SF1 or polyproline constructs and vice versa with similar results. Protein concentrations in the cell were around 20–40 μM, while in the syringe ranged between 200 and 500 μM. Experiments were performed at least in duplicate with injections of 1.5 μL (0.4 μL for first point) separated by 150 s delays to recover thermal power baseline and continuous stirring in the cell (750 rpm) for correct mixing. The reference cell was filled with water in all experiments. Data were processed by removing the blank experiment (using digested GB1 fusion protein) and adjusted to one-site binding model with Malvern PEAQ-ITC Analysis software (Malvern Instruments, UK).

Question: Which “N (sites)” value (ITC as E10) does the source give for PPLPPGAPPPPPPPPP [SF1WWbs] here?
Answer: The value was 0.84 ± 0.05 sites.

Question: And the “DH” value (ITC binding enthalpy, as E10)?
Answer: The value was -21 ± 2.2 kcal/mol.

Question: What about the “Kd (µM)” value (ITC, 25 °C, 20 mM sodium phosphate pH 6.5, 100 mM NaCl, GB1-tagged SF1 16-mer, N-ext-WW12 with PPVP/PALPP changed to alanine, at least duplicates) of the same sequence?
Answer: The value was “comparable to the isolated WW tandem”.

Question: What about the Kd (ITC, 25 °C, 20 mM sodium phosphate pH 6.5, 100 mM NaCl, GB1-tagged SF1 16-mer, N-ext-WW12 with PPVP/PALPP changed to alanine, at least duplicates, read-out: Kd) of the same sequence?
Answer: Its Kd is 2210 ± 240 nM.

Question: What about the Kd (ITC, individual value 1 (replicate 1), read-out: Kd Values with Nter Ext WW12 MUTANT, individual value) of the same sequence?
Answer: The Kd was 2440 nM.

Question: What about the Kd (ITC, individual value 2 (replicate 2), read-out: Kd Values with Nter Ext WW12 MUTANT, individual value) of the same sequence?
Answer: The Kd was 1980 nM.
